Data on 1 molecule can be found in US8962020B2, “Long-acting and controlled release formulations of 2-[(3-chlorophenyl) amino] phenylacetic acid” (Glycadia Inc., priority 2012, dated 2015).

A short description of data set [1]: Gastric histopathology following oral administration of 23CPPA in rats for fourteen days. In kind it is in vivo. Here is the method:
(§1) Rats (Charles River Laboratories) received 23CPPA orally at dosages of 25 and 75 mg per kg per day for fourteen days. Samples were obtained at timed intervals following administration for measurement of plasma concentrations of 23CPPA and pharmacokinetic analysis, and tissue was histopathologically examined at the end termination of the study period.

A short description of data set [2]: pKa (acid dissociation constant). In kind it is physicochemical. The conditions noted are these: pharmaceutically acceptable salts of 23CPPA such as potassium; read-out: pKa (logarithm of the acid dissociation constant).
The nature of data set [3]: Plasma 23CPPA after oral graduated doses of nonformulated 23CPPA to normal men. It counts as in vivo. Here is the method:
Plasma concentrations of 23CPPA were measured in samples obtained at timed intervals after oral administration of graduated doses of nonformulated 23CPPA to normal men.

The nature of data set [4]: Pharmacokinetics following oral administration of 23CPPA in rats for fourteen days. It counts as in vivo. The conditions noted are these: for Tmax / half-life: rat, plasma. Here is the method: as §1

For the molecule `O=C(O)Cc1ccccc1Nc1cccc(Cl)c1` [Granule 23CPPA, 2-[(3-chlorophenyl)amino] phenylacetic acid], the “Gastric Histopathology: Edema/inflammation” value is recorded as “Edema/inflammation (20) % animals” in data set [1] (25 mg/kg/day for fourteen days) and “Edema/inflammation (30) % animals” in data set [1] (75 mg/kg/day for fourteen days). The pKa in data set [2] turned out to be 4. Also, the “Plasma 23CPPA (peak concentration)” value in data set [3] (relative dose 1) was determined as 7 nmol/mL; in data set [3] (relative dose 2), 19 nmol/mL; in data set [3] (relative dose 5), 44 nmol/mL; in data set [3] (relative dose 10), 64 nmol/mL; in data set [3] (relative dose 15), 70 nmol/mL; in data set [3] (relative dose 20), 74 nmol/mL. Further, the “time of maximum plasma concentration of drug after administration” value in data set [4] (25 and 75 mg per kg per day) was found to be 0.25 h. For the same molecule, the Tmax in data set [4] (25 mg/kg/day for fourteen days) and in data set [4] (75 mg/kg/day for fourteen days) was 0.25 h in each case. Also, the half-life in data set [4] (25 mg/kg/day for fourteen days) and in data set [4] (75 mg/kg/day for fourteen days) was 2.3 h throughout.

As usually defined, the pKa is the negative logarithm of the acid dissociation constant. A word on the Tmax: it is the time at which the peak concentration occurs. As a reminder, the half-life is the time needed for the level to fall by half in the phase considered. The low end stands for fast loss, the high end for slow loss.
